Experimental data taken from ChEMBL document CHEMBL5661943, “ASAP - In vitro antiviral effect” (2024).
Where “and” joins values, the source holds several entries; their conditions need not be identical. Equal entries are not always repeated.

Legend:
Zika virus [1] = assay: EC50 is reported via analysis of immunofluorescence staining. The assay has been performed by Icahn School of Medicine at Mount Sinai.; type: functional, organism-based, Chlorocebus sabaeus, VeroE6/TMPRSS2
dengue virus type 2 [2] = assay: Functional immunofluorescence assay to measure dose dependent changes in antiviral-drug inhibitory efficacy against Dengue virus type 2 Thailand/16681/84 in Vero E6/TMPRSS2 cells (cotreated with P-gp inhibitor, Elacridar). Cells are treated with antiviral candidates that are serially diluted, following infection, cells are fixed. EC50 is reported via analysis of immunofluorescence staining. The assay has been performed by Icahn School of Medicine at Mount Sinai.; type: organism-based, Chlorocebus sabaeus, VeroE6/TMPRSS2
Zika virus [3] = assay: Functional immunofluorescence assay to measure dose dependent changes in antiviral-drug inhibitory efficacy against Zika virus PRVABC59 in Vero E6/TMPRSS2 cells. Cells are treated with antiviral candidates that are serially diluted, following infection, cells are fixed. EC50 is reported via analysis of immunofluorescence staining. The assay has been performed by Icahn School of Medicine at Mount Sinai.; type: organism-based, Chlorocebus sabaeus; details: for EC50: VeroE6/TMPRSS2
dengue virus type 2 [4] = assay: Functional immunofluorescence assay to measure dose dependent changes in antiviral-drug inhibitory efficacy against Dengue virus type 2 Thailand/16681/84 in Vero E6/TMPRSS2 cells. Cells are treated with antiviral candidates that are serially diluted, following infection, cells are fixed. EC50 is reported via analysis of immunofluorescence staining. The assay has been performed by Icahn School of Medicine at Mount Sinai.; type: organism-based, Chlorocebus sabaeus
dengue virus type 2 [5] = assay: Functional CPE-based assay to measure dose dependent changes in antiviral-drug inhibitory efficacy against Dengue virus type 2 New Guinea C in Huh7 cells. Cells are treated with antiviral candidates that are serially diluted. EC50 is reported via analysis of MTT/MTS assay as a readout of CPE. The assay has been performed by National Institute of Allergy and Infectious Diseases.; type: organism-based, Homo sapiens; details: Huh-7
Zika virus [6] = assay: Functional CPE-based assay to measure dose dependent changes in antiviral-drug inhibitory efficacy against Zika virus MR766 in Vero E6 miRFP670 cells. Cells are treated with antiviral candidates that are serially diluted. EC50 is reported via analysis of MTS assay as a readout of CPE. The assay has been performed by KU Leuven.; type: organism-based, Chlorocebus sabaeus, Vero C1008; details: Zika virus; for EC50: Vero C1008
dengue virus type 2 [7] = assay: Functional assay to measure dose dependent changes in antiviral-drug inhibitory efficacy against Dengue virus type 2 New Guinea C in Vero E6 miRFP670 cells (cotreated with P-gp inhibitor, CP100356). Cells are treated with antiviral candidates that are serially diluted, following infection, cells are fixed. EC50 is reported via analysis of fluorescence intensity using high-content imager. The …; type: organism-based, Chlorocebus sabaeus, Vero C1008; details: for EC90: Baseline response 0 %, Maximum response 100 %, P-gp concentration 500 nM, P-gp inhibitor CP100356
Zika virus [8] = assay: Functional CPE-based assay to measure dose dependent changes in antiviral-drug inhibitory efficacy against Zika virus MR766 in Vero E6 miRFP670 cells (cotreated with P-gp inhibitor, CP100356). Cells are treated with antiviral candidates that are serially diluted. EC50 is reported via analysis of MTS assay as a readout of CPE. The assay has been performed by KU Leuven.; type: organism-based, Chlorocebus sabaeus, Vero C1008; details: Zika virus, Vero C1008

## NCc1ccc(-c2ncc(OCC3CCNCC3)nc2-c2ccc(-c3ccoc3)cc2)cc1
Zika virus [1]; Zika virus, VeroE6/TMPRSS2
  EC50: 0.111 µM
  EC90: 16.5 µM
Dengue virus type 2 [2]; Dengue virus, VeroE6/TMPRSS2
  EC50: 1 µM
Dengue virus type 2 [2]; Dengue virus, VeroE6/TMPRSS2, Baseline response 0 %, Hill slope -0.497, Maximum measured 90.326 %, Maximum response 100 %, Minimum measured 29.879 %, P-gp concentration 2 uM, R squared 0.819, P-gp inhibitor Elacidar
  EC90: > 16.7 µM
Zika virus [3]
  EC50: > 50 µM
Zika virus [3]; VeroE6/TMPRSS2, Maximum measured 394.841 %, Minimum measured 61.013 %
  EC90: > 50 µM
Dengue virus type 2 [4]; VeroE6/TMPRSS2
  EC50: 16.1 µM
Dengue virus type 2 [4]; VeroE6/TMPRSS2, Baseline response -26.43 %, Hill slope -19.353, Maximum measured 64.866 %, Maximum response 59.51 %, Minimum measured 1.549 %, R squared 0.583
  EC90: > 16.7 µM
Dengue virus type 2 [5]
  EC50: > 5.5 µM

## CCCC[C@H](NC(C)=O)C(=O)N[C@H](C(=O)NCc1ccc(C(N)=O)cc1)c1ccc(OCc2ccccc2)cc1
Zika virus [1]; Zika virus, VeroE6/TMPRSS2
  EC50: > 50 µM
Zika virus [1]; Zika virus, VeroE6/TMPRSS2, Maximum measured 173.346 %, Minimum measured 74.645 %, P-gp concentration 2 uM, P-gp inhibitor Elacidar
  EC90: > 50 µM
Zika virus [1]; Zika virus, VeroE6/TMPRSS2, Baseline response 0 %, Hill slope 0.304, Maximum measured 106.185 %, Maximum response 100 %, Minimum measured 70.235 %, P-gp concentration 2 uM, R squared 0.184, P-gp inhibitor Elacidar
  EC90: > 50 µM
Dengue virus type 2 [2]; Baseline response 0 %, Hill slope -0.583, Maximum measured 72.286 %, Maximum response 50 %, Minimum measured 22.28 %, P-gp concentration 2 uM, R squared 0.087, P-gp inhibitor Elacidar
  EC90: > 50 µM
Dengue virus type 2 [2]; Dengue virus, VeroE6/TMPRSS2, Baseline response 0 %, Hill slope -0.364, Maximum measured 95.574 %, Maximum response 100 %, Minimum measured 8.045 %, P-gp concentration 2 uM, R squared 0.69, P-gp inhibitor Elacidar
  EC90: > 50 µM
Dengue virus type 2 [5]
  EC50: 5.3 µM

## O=C(Nc1ccc2c(c1)B(O)OC2)c1cccc(OCc2c(Cl)cccc2Cl)c1
Zika virus [3]
  EC50: 1.09 µM
Zika virus [3]; VeroE6/TMPRSS2, Baseline response 0 %, Hill slope -0.477, Maximum measured 91.001 %, Maximum response 100 %, Minimum measured 4.308 %, R squared 0.689
  EC90: > 16.7 µM
Dengue virus type 2 [4]; VeroE6/TMPRSS2
  EC50: 0.155 µM
  EC90: 0.735 µM
Dengue virus type 2 [5]
  EC50: > 1.9 µM

## CC1(C)Cc2sc(NC(=O)Cc3ccc(S(N)(=O)=O)cc3)c(C#N)c2CN1CC1CCCCC1
Zika virus [6]
  EC50: > 50 µM
Zika virus [6]; Vero C1008, Maximum measured -0.002 %, Minimum measured -8.758 %
  EC90: > 50 µM
Dengue virus type 2 [7]; Dengue virus, Vero C1008
  EC50: < 0.391 µM
Dengue virus type 2 [7]; Dengue virus, Vero C1008, Hill slope -4.912, Maximum measured 6.91 %, Minimum measured 0.005 %, R squared 0.81
  EC90: < 0.391 µM
Dengue virus type 2 [5]
  EC50: < 0.01 µM

## O=C(O)c1cc(Oc2ccc(F)cc2)c(F)cc1NS(=O)(=O)c1ccc(Oc2ccccc2Cl)cc1
Zika virus [1]; Baseline response 0 %, Hill slope -0.477, Maximum measured 92.293 %, Maximum response 50 %, Minimum measured 32.859 %, P-gp concentration 2 uM, R squared 0.014, P-gp inhibitor Elacidar
  EC90: > 16.7 µM
Zika virus [1]; Zika virus, VeroE6/TMPRSS2, Baseline response 0 %, Hill slope -0.324, Maximum measured 79.955 %, Maximum response 100 %, Minimum measured 28.499 %, P-gp concentration 2 uM, R squared 0.691, P-gp inhibitor Elacidar
  EC90: > 16.7 µM
Dengue virus type 2 [2]; Dengue virus, VeroE6/TMPRSS2
  EC50: > 16.7 µM
Dengue virus type 2 [2]; Dengue virus, VeroE6/TMPRSS2, Baseline response 0 %, Hill slope -0.235, Maximum measured 89.319 %, Maximum response 100 %, Minimum measured 56.356 %, P-gp concentration 2 uM, R squared 0.164, P-gp inhibitor Elacidar
  EC90: > 16.7 µM
Dengue virus type 2 [5]
  EC50: > 20 µM

## c1ccc2sc(C3CCN(Cc4c[nH]c5ccccc45)CC3)nc2c1
Zika virus [1]; Baseline response 0 %, EC90 CI (lower) 0.007 uM, EC90 CI (upper) 47.388 uM, Hill slope -1.134, Maximum measured 126.957 %, Maximum response 50 %, Minimum measured 1.357 %, P-gp concentration 2 uM, R squared 0.32, P-gp inhibitor Elacidar
  EC90: 28.6 µM
Zika virus [1]; Zika virus, VeroE6/TMPRSS2
  EC50: 2.33 µM
Zika virus [1]; Zika virus, VeroE6/TMPRSS2, Baseline response 0 %, Hill slope -0.408, Maximum measured 80.807 %, Maximum response 100 %, Minimum measured 15.814 %, P-gp concentration 2 uM, R squared 0.363, P-gp inhibitor Elacidar
  EC90: > 16.7 µM
Zika virus [1]; veroe6/tmprss2
  EC50: 4.11 µM
Dengue virus type 2 [2]; Baseline response 0 %, EC90 CI (lower) 2.225 uM, EC90 CI (upper) 16.418 uM, Hill slope -4.495, Maximum measured 125.314 %, Maximum response 100 %, Minimum measured 8.4 %, P-gp concentration 2 uM, R squared 0.582, P-gp inhibitor Elacidar
  EC90: 16.1 µM
Dengue virus type 2 [2]; Dengue virus, VeroE6/TMPRSS2
  EC90: 16.6 µM
Dengue virus type 2 [2]; veroe6/tmprss2
  EC50: 2.19 µM and 9.85 µM
Dengue virus type 2 [5]
  EC50: > 18 µM

## O=C(NCC(F)(F)F)c1cc(Cl)c(F)cc1NS(=O)(=O)c1ccc(Oc2ccccc2Cl)cc1
Zika virus [6]
  EC50: > 50 µM
Zika virus [6]; Vero C1008, Maximum measured -0.734 %, Minimum measured -10.955 %
  EC90: > 50 µM
Dengue virus type 2 [7]; Dengue virus, Vero C1008
  EC50: 3.79 µM
Dengue virus type 2 [7]; Dengue virus, Vero C1008, EC90 CI (lower) 2.885 uM, EC90 CI (upper) 3.374 uM, Hill slope -11.236, Maximum measured 107.639 %, Minimum measured 0.022 %, R squared 0.991
  EC90: 4.61 µM
Dengue virus type 2 [5]
  EC50: > 1.9 µM

## COc1cc(N[C@@H](C(=O)N2CCc3ccc(OC(F)(F)F)cc32)c2ccc(Cl)cc2)cc(OCCCC(=O)O)c1
Zika virus [1]; Zika virus, VeroE6/TMPRSS2
  EC50: > 10 µM
Zika virus [1]; Zika virus, VeroE6/TMPRSS2, Maximum measured 96.7 %, Minimum measured 47.971 %, P-gp concentration 2 uM, P-gp inhibitor Elacidar
  EC90: > 10 µM
Zika virus [1]; Zika virus, VeroE6/TMPRSS2, Maximum measured 158.114 %, Minimum measured 73.503 %, P-gp concentration 2 uM, P-gp inhibitor Elacidar
  EC90: > 10 µM
Zika virus [1]; Zika virus, VeroE6/TMPRSS2, Baseline response 0 %, Hill slope -19.172, Maximum measured 90.933 %, Maximum response 60 %, Minimum measured 7.507 %, P-gp concentration 2 uM, R squared 0.342, P-gp inhibitor Elacidar
  EC90: > 16.7 µM
Zika virus [1]; veroe6/tmprss2
  EC50: 15.1 µM
Dengue virus type 2 [2]; Baseline response 0 %, Hill slope 0.035, Maximum measured 8.614 %, Maximum response 100 %, Minimum measured 2.814 %, P-gp concentration 2 uM, R squared 0.022, P-gp inhibitor Elacidar
  EC90: < 0.023 µM
Dengue virus type 2 [2]; Baseline response 0 %, Hill slope -0.067, Maximum measured 2.038 %, Maximum response 100 %, Minimum measured 0.482 %, P-gp concentration 2 uM, R squared 0.032, P-gp inhibitor Elacidar
  EC90: < 0.005 µM
Dengue virus type 2 [2]; Baseline response 0 %, Hill slope -0.192, Maximum measured 3.988 %, Maximum response 100 %, Minimum measured 0.35 %, P-gp concentration 2 uM, R squared 0.503, P-gp inhibitor Elacidar
  EC90: < 0.005 µM
Dengue virus type 2 [2]; veroe6/tmprss2
  EC50: < 0.005 µM
Zika virus [6]
  EC50: > 6.25 µM
Zika virus [6]; Vero C1008, Baseline response 0 %, Hill slope 1.919, Maximum measured 39.533 %, Maximum response 100 %, Minimum measured 0.481 %, R squared 0.987
  EC90: > 6.25 µM
Zika virus [6]; Vero C1008, Baseline response 0 %, Hill slope 2.194, Maximum measured 37.889 %, Maximum response 100 %, Minimum measured -0.884 %, R squared 0.976
  EC90: > 6.25 µM
Zika virus [6]; Vero C1008, Baseline response 0 %, Hill slope 2.262, Maximum measured 0.1 %, Maximum response 100 %, Minimum measured -2.404 %, R squared 0.714
  EC90: > 6.25 µM
Zika virus [8]
  EC50: > 6.25 µM
Zika virus [8]; Baseline response 0 %, Hill slope 1.255, Maximum measured 36.243 %, Maximum response 100 %, Minimum measured 3.426 %, P-gp concentration 500 nM, R squared 0.925, P-gp inhibitor CP100356
  EC90: > 6.25 µM
Dengue virus type 2 [7]; EC90 CI (lower) 26.978 uM, EC90 CI (upper) 1103.75 uM, Hill slope 1.671, Maximum measured 3.58 %, Minimum measured 0.058 %, R squared 0.662
  EC90: < 0.391 µM
Dengue virus type 2 [7]; Hill slope 0.149, Maximum measured 0.277 %, Minimum measured 0.08 %, R squared 0.031
  EC90: < 0.391 µM
Dengue virus type 2 [7]; Hill slope 0.294, Maximum measured 5.954 %, Minimum measured 0.022 %, R squared 0.035
  EC90: < 0.391 µM
Dengue virus type 2 [7]; Dengue virus, Vero C1008
  EC50: < 0.391 µM
Dengue virus type 2 [7]; Dengue virus, Vero C1008, Hill slope -0.103, Maximum measured 0.223 %, Minimum measured 0.035 %, R squared 0.026
  EC90: < 0.391 µM
Dengue virus type 2 [5]
  EC50: < 0.01 µM
